# ChEMBL document CHEMBL1147146, “Cells lacking DNA topoisomerase II beta are resistant to genistein” (J Nat Prod, 2007)
# pIC50: −log10 of the molar value. Active and inactive are the calls of the source. No cut-off for these calls is given here.
# How the values were obtained:
# [1] = biological target: T1, DNA topoisomerase 1 (Homo sapiens) (UniProt P11387); details: K562
# T1 sequence (whole entry): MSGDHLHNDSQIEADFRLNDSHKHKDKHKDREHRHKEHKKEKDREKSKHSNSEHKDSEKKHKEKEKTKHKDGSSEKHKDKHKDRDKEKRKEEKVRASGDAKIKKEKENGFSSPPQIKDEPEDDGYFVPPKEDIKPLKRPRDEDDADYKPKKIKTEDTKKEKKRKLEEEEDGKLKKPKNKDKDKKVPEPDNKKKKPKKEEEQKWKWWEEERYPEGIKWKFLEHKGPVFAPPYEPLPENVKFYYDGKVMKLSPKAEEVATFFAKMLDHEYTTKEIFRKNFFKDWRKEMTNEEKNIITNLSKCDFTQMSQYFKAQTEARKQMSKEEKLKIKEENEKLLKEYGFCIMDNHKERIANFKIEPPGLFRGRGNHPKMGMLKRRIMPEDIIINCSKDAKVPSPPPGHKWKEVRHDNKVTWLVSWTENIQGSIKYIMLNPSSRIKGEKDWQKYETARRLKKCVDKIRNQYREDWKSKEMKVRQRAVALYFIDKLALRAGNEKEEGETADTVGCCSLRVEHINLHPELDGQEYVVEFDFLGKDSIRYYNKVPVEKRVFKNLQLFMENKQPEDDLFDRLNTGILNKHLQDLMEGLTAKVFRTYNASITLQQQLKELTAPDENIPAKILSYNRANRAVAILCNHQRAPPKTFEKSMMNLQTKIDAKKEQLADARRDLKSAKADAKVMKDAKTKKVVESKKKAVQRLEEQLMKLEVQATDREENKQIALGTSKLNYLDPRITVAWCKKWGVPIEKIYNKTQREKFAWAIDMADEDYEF
# Description: Induction of topoisomerase 1-DNA complexes in K562 cells assessed as integrated green fluorescence at 10 times their IC50 after 24 hrs by TARDIS assay
# [2] = biological target: T1, DNA topoisomerase 1 (Homo sapiens); details: K562; remark: listed apart in the source
# Description: Induction of topoisomerase 1-DNA complexes in K562 cells assessed as integrated green fluorescence at 10 times their IC50 after 8 hrs by TARDIS assay
# [3] = biological target: T1, DNA topoisomerase 1 (Homo sapiens); details: K562, 10 uM
# Description: Induction of topoisomerase 1-DNA complexes in K562 cells assessed as integrated green fluorescence at 10 uM after 1 hr by TARDIS assay
# [4] = biological target: T1, DNA topoisomerase 1 (Homo sapiens); details: K562; remark: listed apart in the source
# Description: Induction of topoisomerase 1-DNA complexes in K562 cells assessed as integrated green fluorescence at 10 times their IC50 after 2 hrs by TARDIS assay
# [5] = biological target: DNA topoisomerase 2-beta (Homo sapiens) (UniProt Q02880); assay: Induction of human recombinant topoisomerase 2beta-DNA complex in K562 cells assessed as integrated fluorescence at 10 uM after 2 hrs by TARDIS assay; type: cell-based
# [6] = biological target: DNA topoisomerase 2-alpha (Homo sapiens) (UniProt P11388); details: K562, 10 uM
# Description: Induction of human recombinant topoisomerase 2-DNA complexes in K562 cells assessed as integrated green fluorescence at 10 uM after 2 hrs by TARDIS assay
# [7] = biological target: DNA topoisomerase 2-alpha (Homo sapiens) (UniProt P11388); details: K562
# Description: Induction of human recombinant topoisomerase 2-DNA complexes in K562 cells assessed as integrated green fluorescence at 10 times their IC50 after 24 hrs by TARDIS assay
# [8] = biological target: DNA topoisomerase 2-alpha (Homo sapiens) (UniProt P11388); details: K562; remark: listed apart in the source
# Description: Induction of human recombinant topoisomerase 2-DNA complexes in K562 cells assessed as integrated green fluorescence at 10 times their IC50 after 2 hrs by TARDIS assay
# [9] = biological target: DNA topoisomerase 2-alpha (Homo sapiens) (UniProt P11388); details: K562; remark: listed apart in the source
# Description: Induction of human recombinant topoisomerase 2-DNA complexes in K562 cells assessed as integrated green fluorescence at 10 times their IC50 after 8 hrs by TARDIS assay
# [10] = biological target: T1, DNA topoisomerase 1 (Homo sapiens); assay: Induction of topoisomerase 1-DNA complexes in K562 cells assessed as integrated green fluorescence at 175 uM after 6 hrs by TARDIS assay; type: cell-based
# [11] = biological target: T1, DNA topoisomerase 1 (Homo sapiens); assay: Inhibition of topoisomerase 1 assessed as reduction of camptothecin-induced topo 1-DNA complexes in K562 cells by measuring integrated fluorescence at 175 uM after 24 hrs by TARDIS assay; type: cell-based
# [12] = Growth inhibition of mouse knock out topoisomerase 2-beta -/- cells after 4 hrs by colonogenic assay; type: functional
# [13] = Survival of mouse wild-type topoisomerase 2beta +/+cells at 100 uM after 4 hrs by colonogenic assay; type: functional
# [14] = Survival of mouse topoisomerase 2-beta -/- cells at 100 uM after 4 hrs by colonogenic assay; type: functional
# [15] = Growth inhibition of mouse wild-type topoisomerase 2-beta +/+ cells after 4 hrs by colonogenic assay; type: functional
# [16] = biological target: DNA topoisomerase 2-alpha (Homo sapiens) (UniProt P11388); assay: Induction of human recombinant topoisomerase 2-DNA complexes in K562 cells assessed as integrated green fluorescence at 175 uM after 6 hrs by TARDIS assay; type: cell-based
# Mus musculus [17] = species: Mus musculus; assay: Growth inhibition of mouse topoisomerase 2-beta +/+ cells at 100 to 300 uM after 4 hrs by XTT assay; type: functional
# [18] = biological target: DNA topoisomerase 2-alpha (Homo sapiens) (UniProt P11388); assay: Inhibition of human recombinant topoisomerase 2 assessed as reduction of etoposide-induced topo 2-DNA complexes in K562 cells by measuring integrated fluorescence at 17 uM after 24 hrs by TARDIS assay; type: cell-based
# [19] = biological target: DNA topoisomerase 2-alpha (Homo sapiens) (UniProt P11388); assay: Induction of human recombinant topoisomerase 2-DNA complexes in K562 cells assessed as integrated green fluorescence at 175 uM after 2 hrs by TARDIS assay; type: cell-based
# [20] = biological target: T1, DNA topoisomerase 1 (Homo sapiens); assay: Induction of topoisomerase 1-DNA complexes in K562 cells assessed as integrated green fluorescence at 175 uM after 2 hrs by TARDIS assay; type: cell-based
# Mus musculus [21] = species: Mus musculus; assay: Growth inhibition of mouse topoisomerase 2-beta -/- cells at 100 to 300 uM after 4 hrs by XTT assay; type: functional
# [22] = biological target: T1, DNA topoisomerase 1 (Homo sapiens); assay: Induction of topoisomerase 1-DNA complexes in K562 cells assessed as integrated green fluorescence at 175 uM after 24 hrs by TARDIS assay; type: cell-based
# [23] = biological target: T1, DNA topoisomerase 1 (Homo sapiens); assay: Inhibition of topoisomerase 1 assessed as reduction of camptothecin-induced topo 1-DNA complexes in K562 cells by measuring integrated fluorescence at 17 uM after 24 hrs by TARDIS assay; type: cell-based
# K562 = assay: Growth inhibition of K562 cells by XTT assay after 5 days; type: functional, cell-based; details: Homo sapiens, K562, 120 h
# [24] = Growth inhibition of mouse topoisomerase 2-beta -/- cells at 300 uM after 4 hrs by colonogenic assay; type: functional; set-up: scale not given: the % may be the effect or the level left
# [25] = biological target: T1, DNA topoisomerase 1 (Homo sapiens); assay: Induction of topoisomerase 1-DNA complexes in K562 cells assessed as integrated green fluorescence at 175 uM after 0.5 hrs by TARDIS assay; type: cell-based
# [26] = biological target: DNA topoisomerase 2-beta (Homo sapiens) (UniProt Q02880); assay: Induction of human recombinant topoisomerase 2beta-DNA complex in K562 cells assessed as integrated fluorescence at 175 uM after 2 hrs by TARDIS assay; type: cell-based
# [27] = biological target: DNA topoisomerase 2-alpha (Homo sapiens) (UniProt P11388); assay: Induction of human recombinant topoisomerase 2-DNA complexes in K562 cells assessed as integrated green fluorescence at 175 uM after 24 hrs by TARDIS assay; type: cell-based
# [28] = biological target: DNA topoisomerase 2-alpha (Homo sapiens) (UniProt P11388); assay: Induction of human recombinant topoisomerase 2-DNA complexes in K562 cells assessed as integrated green fluorescence at 175 uM after 0.5 hrs by TARDIS assay; type: cell-based
# [29] = biological target: DNA topoisomerase 2-alpha (Homo sapiens) (UniProt P11388); assay: Inhibition of human recombinant topoisomerase 2 assessed as reduction of etoposide-induced topo 2-DNA complexes in K562 cells by measuring integrated fluorescence at 175 uM after 24 hrs by TARDIS assay; type: cell-based
# [30] = biological target: DNA topoisomerase 2-alpha (Homo sapiens) (UniProt P11388); assay: Inhibition of human recombinant topoisomerase 2 assessed as reduction of etoposide-induced topo 2-DNA complexes in K562 cells by measuring integrated fluorescence at 146 uM after 24 hrs by TARDIS assay; type: cell-based
# [31] = biological target: T1, DNA topoisomerase 1 (Homo sapiens); assay: Inhibition of topoisomerase 1 assessed as reduction of camptothecin-induced topo 1-DNA complexes in K562 cells by measuring integrated fluorescence at 14 uM after 24 hrs by TARDIS assay; type: cell-based
# [32] = biological target: DNA topoisomerase 2-alpha (Homo sapiens) (UniProt P11388); assay: Induction of human recombinant topoisomerase 2-DNA complexes in K562 cells assessed as integrated green fluorescence at 146 uM after 0.5 hrs by TARDIS assay; type: cell-based
# [33] = biological target: T1, DNA topoisomerase 1 (Homo sapiens); assay: Induction of topoisomerase 1-DNA complexes in K562 cells assessed as integrated green fluorescence at 146 uM after 2 hrs by TARDIS assay; type: cell-based
# [34] = biological target: T1, DNA topoisomerase 1 (Homo sapiens); assay: Inhibition of topoisomerase 1 assessed as reduction of camptothecin-induced topo 1-DNA complexes in K562 cells by measuring integrated fluorescence at 146 uM after 24 hrs by TARDIS assay; type: cell-based
# [35] = biological target: DNA topoisomerase 2-alpha (Homo sapiens) (UniProt P11388); assay: Induction of human recombinant topoisomerase 2-DNA complexes in K562 cells assessed as integrated green fluorescence at 146 uM after 2 hrs by TARDIS assay; type: cell-based
# [36] = biological target: DNA topoisomerase 2-alpha (Homo sapiens) (UniProt P11388); assay: Induction of human recombinant topoisomerase 2-DNA complexes in K562 cells assessed as integrated green fluorescence at 146 uM after 6 hrs by TARDIS assay; type: cell-based
# [37] = biological target: DNA topoisomerase 2-alpha (Homo sapiens) (UniProt P11388); assay: Inhibition of human recombinant topoisomerase 2 assessed as reduction of etoposide-induced topo 2-DNA complexes in K562 cells by measuring integrated fluorescence at 14 uM after 24 hrs by TARDIS assay; type: cell-based
# [38] = biological target: T1, DNA topoisomerase 1 (Homo sapiens); assay: Induction of topoisomerase 1-DNA complexes in K562 cells assessed as integrated green fluorescence at 146 uM after 6 hrs by TARDIS assay; type: cell-based
# [39] = biological target: T1, DNA topoisomerase 1 (Homo sapiens); assay: Induction of topoisomerase 1-DNA complexes in K562 cells assessed as integrated green fluorescence at 146 uM after 0.5 hrs by TARDIS assay; type: cell-based
# [40] = biological target: T1, DNA topoisomerase 1 (Homo sapiens); assay: Induction of topoisomerase 1-DNA complexes in K562 cells assessed as integrated green fluorescence at 146 uM after 24 hrs by TARDIS assay; type: cell-based
# [41] = biological target: DNA topoisomerase 2-alpha (Homo sapiens) (UniProt P11388); assay: Induction of human recombinant topoisomerase 2-DNA complexes in K562 cells assessed as integrated green fluorescence at 146 uM after 24 hrs by TARDIS assay; type: cell-based
# Chain of DNA topoisomerase 2-alpha (Homo sapiens) (P11388 whole entry): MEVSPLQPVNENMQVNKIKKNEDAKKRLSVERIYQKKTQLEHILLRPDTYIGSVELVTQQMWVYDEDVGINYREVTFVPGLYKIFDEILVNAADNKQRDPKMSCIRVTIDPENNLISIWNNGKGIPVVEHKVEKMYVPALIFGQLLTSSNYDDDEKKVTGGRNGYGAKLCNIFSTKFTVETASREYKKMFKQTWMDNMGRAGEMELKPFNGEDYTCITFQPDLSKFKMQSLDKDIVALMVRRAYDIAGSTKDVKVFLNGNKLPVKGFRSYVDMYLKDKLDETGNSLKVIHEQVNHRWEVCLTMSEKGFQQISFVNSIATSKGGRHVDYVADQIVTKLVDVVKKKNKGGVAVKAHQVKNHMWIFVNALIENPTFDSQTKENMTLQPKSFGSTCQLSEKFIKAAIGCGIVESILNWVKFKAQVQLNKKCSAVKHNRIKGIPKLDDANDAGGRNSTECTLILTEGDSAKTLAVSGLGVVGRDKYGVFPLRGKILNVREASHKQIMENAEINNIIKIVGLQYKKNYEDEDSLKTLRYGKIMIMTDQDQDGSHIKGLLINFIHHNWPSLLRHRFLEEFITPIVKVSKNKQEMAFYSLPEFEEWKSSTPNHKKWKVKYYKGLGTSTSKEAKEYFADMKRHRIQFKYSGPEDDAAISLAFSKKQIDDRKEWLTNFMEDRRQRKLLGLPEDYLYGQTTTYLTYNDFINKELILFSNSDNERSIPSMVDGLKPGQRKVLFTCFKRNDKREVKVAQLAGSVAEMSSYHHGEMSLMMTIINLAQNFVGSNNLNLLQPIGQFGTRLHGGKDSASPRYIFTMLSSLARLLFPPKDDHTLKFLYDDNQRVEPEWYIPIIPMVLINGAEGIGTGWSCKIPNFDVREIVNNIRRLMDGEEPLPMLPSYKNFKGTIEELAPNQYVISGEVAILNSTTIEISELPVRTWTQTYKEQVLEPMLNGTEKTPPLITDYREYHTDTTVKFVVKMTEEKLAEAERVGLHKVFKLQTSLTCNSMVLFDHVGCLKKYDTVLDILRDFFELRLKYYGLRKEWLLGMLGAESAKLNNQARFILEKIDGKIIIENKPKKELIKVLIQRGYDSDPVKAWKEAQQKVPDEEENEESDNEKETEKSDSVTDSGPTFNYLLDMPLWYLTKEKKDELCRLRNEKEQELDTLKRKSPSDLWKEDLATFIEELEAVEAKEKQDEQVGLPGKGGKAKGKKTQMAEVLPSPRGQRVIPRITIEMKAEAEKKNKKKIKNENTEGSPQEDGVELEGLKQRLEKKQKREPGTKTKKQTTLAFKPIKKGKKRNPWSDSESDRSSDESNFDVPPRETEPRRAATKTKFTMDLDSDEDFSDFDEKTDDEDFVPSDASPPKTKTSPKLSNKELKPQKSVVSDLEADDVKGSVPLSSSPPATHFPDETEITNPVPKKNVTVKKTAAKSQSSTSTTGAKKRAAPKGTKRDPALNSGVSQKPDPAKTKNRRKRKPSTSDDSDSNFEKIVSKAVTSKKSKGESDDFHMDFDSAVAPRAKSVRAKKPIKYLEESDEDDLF
# Chain of DNA topoisomerase 2-beta (Homo sapiens) (Q02880 whole entry): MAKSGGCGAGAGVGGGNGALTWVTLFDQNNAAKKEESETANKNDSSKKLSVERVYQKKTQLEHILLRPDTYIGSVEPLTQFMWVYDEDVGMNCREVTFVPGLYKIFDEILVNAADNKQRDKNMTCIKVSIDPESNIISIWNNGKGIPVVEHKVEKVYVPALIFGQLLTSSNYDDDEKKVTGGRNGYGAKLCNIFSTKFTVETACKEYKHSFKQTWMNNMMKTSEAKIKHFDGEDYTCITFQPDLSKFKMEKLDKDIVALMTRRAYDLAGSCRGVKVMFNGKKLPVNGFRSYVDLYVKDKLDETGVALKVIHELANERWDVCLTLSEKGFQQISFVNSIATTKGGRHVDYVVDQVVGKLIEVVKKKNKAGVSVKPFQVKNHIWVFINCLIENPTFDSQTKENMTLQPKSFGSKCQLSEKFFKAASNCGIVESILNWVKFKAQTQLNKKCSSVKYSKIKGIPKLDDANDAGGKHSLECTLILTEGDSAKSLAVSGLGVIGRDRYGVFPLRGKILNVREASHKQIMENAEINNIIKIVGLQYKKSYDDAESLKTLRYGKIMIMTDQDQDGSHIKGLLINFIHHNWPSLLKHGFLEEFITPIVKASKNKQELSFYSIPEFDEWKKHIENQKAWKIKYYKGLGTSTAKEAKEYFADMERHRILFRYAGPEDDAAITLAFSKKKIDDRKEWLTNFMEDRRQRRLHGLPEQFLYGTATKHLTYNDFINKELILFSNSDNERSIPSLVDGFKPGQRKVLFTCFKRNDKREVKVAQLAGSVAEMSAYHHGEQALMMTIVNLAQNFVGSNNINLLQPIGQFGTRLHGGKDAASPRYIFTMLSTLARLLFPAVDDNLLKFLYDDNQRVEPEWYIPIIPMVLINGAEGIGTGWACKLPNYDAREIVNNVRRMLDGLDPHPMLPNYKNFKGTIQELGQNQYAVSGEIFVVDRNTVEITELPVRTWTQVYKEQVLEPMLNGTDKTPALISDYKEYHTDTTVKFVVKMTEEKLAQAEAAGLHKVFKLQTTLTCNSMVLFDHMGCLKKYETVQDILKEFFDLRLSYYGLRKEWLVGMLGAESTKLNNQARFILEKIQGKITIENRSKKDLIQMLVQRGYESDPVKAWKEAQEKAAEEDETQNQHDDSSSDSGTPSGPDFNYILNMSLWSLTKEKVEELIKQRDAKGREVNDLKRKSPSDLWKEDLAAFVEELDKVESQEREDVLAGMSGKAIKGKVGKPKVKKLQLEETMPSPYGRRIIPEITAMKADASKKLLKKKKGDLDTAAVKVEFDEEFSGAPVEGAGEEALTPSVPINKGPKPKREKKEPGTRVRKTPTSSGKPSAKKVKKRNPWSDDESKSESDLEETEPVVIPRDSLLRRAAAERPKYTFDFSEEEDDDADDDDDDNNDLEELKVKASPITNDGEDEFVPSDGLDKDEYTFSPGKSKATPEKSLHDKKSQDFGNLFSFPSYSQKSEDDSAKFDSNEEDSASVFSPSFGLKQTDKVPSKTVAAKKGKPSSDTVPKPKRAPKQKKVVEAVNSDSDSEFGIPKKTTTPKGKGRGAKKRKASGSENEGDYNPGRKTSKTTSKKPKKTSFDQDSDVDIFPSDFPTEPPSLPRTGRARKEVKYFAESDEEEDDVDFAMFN
structure (smiles),measurement,setting,value
CC[C@@]1(O)C(=O)OCc2c1cc1n(c2=O)Cc2cc3ccccc3nc2-1,Fluorescence intensity,[1],1.04
same,Fluorescence intensity,[2],1.58
same,Fluorescence intensity,[3],11.4
same,Fluorescence intensity,[4],2.51
COc1cc([C@@H]2c3cc4c(cc3[C@@H](O[C@@H]3O[C@@H]5CO[C@@H](C)O[C@H]5[C@H](O)[C@H]3O)[C@H]3COC(=O)[C@H]23)OCO4)cc(OC)c1O,Fluorescence intensity,[5],3940
same,Fluorescence intensity,[6],49.4
same,Fluorescence intensity,[7],23.4
same,Fluorescence intensity,[8],13.2
same,Fluorescence intensity,[9],20.9
O=c1c(-c2ccc(O)cc2)coc2cc(O)cc(O)c12 [GENISTEIN],Fluorescence intensity,[10],0.44
same,Fluorescence intensity,[11],148%
same,pIC50,[12],3.52
same,Activity,[13],0%
same,Activity,[14],50%
same,pIC50,[15],4.33
same,Fluorescence intensity,[16],7.03
same,Activity,Mus musculus [17],Active
same,Fluorescence intensity,[18],95%
same,Fluorescence intensity,[19],20.4
same,Fluorescence intensity,[20],0.44
same,Activity,Mus musculus [21],inactive
same,Fluorescence intensity,[22],0.18
same,Fluorescence intensity,[23],112%
same,pIC50,K562,4.76
same,Activity,[24],50%
same,Fluorescence intensity,[25],0.96
same,Fluorescence intensity,[26],12700
same,Fluorescence intensity,[27],12.6
same,Fluorescence intensity,[28],7.03
same,Fluorescence intensity,[29],67%
O=c1cc(-c2ccc(O)c(O)c2)oc2cc(O)cc(O)c12 [LUTEOLIN],Fluorescence intensity,[30],85%
same,Fluorescence intensity,[31],99%
same,Fluorescence intensity,[32],3.17
same,Activity,[33],0.28
same,Fluorescence intensity,[34],52%
same,Activity,[35],4.08
same,Fluorescence intensity,[36],7.39
same,Fluorescence intensity,[37],133%
same,Fluorescence intensity,[38],0.51
same,pIC50,K562,4.83
same,Fluorescence intensity,[39],0.49
same,Fluorescence intensity,[40],0.19
same,Fluorescence intensity,[41],5.05
